Results from patent US20240091195A1 (SANWA KAGAKU KENKYUSHO CO., LTD., priority 2021, published 2024).
One block for each compound: values may come before it.

Experiments:
[1] = system: rat pilocarpine-induced salivary secretion model; assay: Pilocarpine-induced salivary secretion, 0.5 cm^2 transdermal absorptive preparations (Test Example 2); format: in vivo, Hairless rats (HWY/Slc); details: 0.5 cm^2 applied to neck once a day, pilocarpine hydrochloride 0.5 mg/kg i.v., n=5
Description: Under isoflurane anesthesia, 0.5 cm^2 of each of the transdermal absorptive preparations (including a placebo preparation) containing various glycopyrronium salts produced in accordance with Preparation Production Example 1, Comparative Preparation Production Examples 2 and 4, and Reference Preparation Production Example 1 was applied to the necks of the rats once a day every 24 hours for 2 days.
The amount of saliva secreted was calculated from the difference between the weights of the cotton ball before and after collection of saliva, and taking the average value of the amount of saliva secreted of the placebo group as 100%, the salivary secretion proportion of each individual was calculated from the following (equation).

[2] = system: rat pilocarpine-induced salivary secretion model; assay: Pilocarpine-induced salivary secretion, 0.25 cm^2 transdermal absorptive preparations (Test Example 3); details: 0.25 cm^2 applied to neck once a day, pilocarpine hydrochloride 0.5 mg/kg i.v.
[3] = dissolved in ethanol, stability after 24 hours

Compound: C[N+]1(C)CCC(OC(=O)C(O)(c2ccccc2)C2CCCC2)C1 (stereo not drawn) [Glycopyrronium bromide, (3RS, 2SR)-glycopyrronium bromide]
salivary secretion suppressive effect compared with placebo group ([1]; Day 1 of application (23 hours after first application), listed as glycopyrronium-bromide): no significant effect
salivary secretion suppressive effect compared with placebo group ([2]; Day 1 of application, listed as glycopyrronium bromide): did not show any significant effect
salivary secretion suppressive effect compared with placebo group ([2]; Day 2 of application, listed as glycopyrronium bromide): did not show any significant effect

decomposition in ethanol [3]: 10%
Compound: C[N+]1(C)CCC(OC(=O)C(O)(c2ccccc2)C2CCCC2)C1.O=C([O-])c1ccccc1 (stereo not drawn) [Glycopyrronium benzoate, glycopyrronium benzoate]

Compound: C[N+]1(C)CCC(OC(=O)C(O)(c2ccccc2)C2CCCC2)C1.O=C([O-])CNC(=O)c1ccccc1 (racemic) [Glycopyrronium hippurate, (3RS, 2SR)-glycopyrronium hippurate]
salivary secretion suppressive effect compared with placebo group ([1]; Day 1 of application (23 hours after first application)): significant salivary secretion suppressive effects
salivary secretion suppressive effect compared with placebo group ([2]; Day 1 of application): significant effect
salivary secretion suppressive effect compared with placebo group ([2]; Day 2 of application): significant effect only on Day 1 of application

Compound: C[N+]1(C)CCC(OC(=O)C(O)(c2ccccc2)C2CCCC2)C1 (stereo not drawn) [Glycopyrronium salicylate, 3-(2-cyclopentyl-2-hydroxy-2-phenylacetoxy)-1,1-dimethylpyrrolidium salicylate]
salivary secretion suppressive effect compared with placebo group ([1]; Day 1 of application (23 hours after first application), listed as glycopyrronium salicylate): significant salivary secretion suppressive effects
salivary secretion suppressive effect compared with placebo group ([1]; Day 2 of application (47 hours after first application)): strongest salivary secretion suppressive effect
salivary secretion suppressive effect compared with placebo group ([2]; Day 1 of application, listed as glycopyrronium salicylate): strongest and significant salivary secretion suppressive effect
salivary secretion suppressive effect compared with placebo group ([2]; Day 2 of application, listed as glycopyrronium salicylate): strongest and significant salivary secretion suppressive effect

Compound: Glycopyrronium acetate
decomposition in ethanol [3]: 20%
